# From patent US12637500B2, “Tumor antigen peptide” (Niigata University, priority 2015, dated 2026)
# Legend:
# HLA-A24 = HLA-A24 binding assay (MFI shift on T2-A24 cells); parameters: species or system human; conditions: for binding to HLA-A24: T2-A24 cells, MFI shift
# Protocol: T2-A24 cells, which are HLA-A24-expressing T2 cells, were preincubated in a CO2 incubator at 27° C. overnight. The cells collected were resuspended in Opti-MEM and plated on a round bottom 96 well plate (Corning) with about 1×10^5 cells/200 μL per well. A subject peptide was added at concentrations of 0.33 μM, […], and 10 μM, and incubation was carried out in a CO2 incubator at 27° C. for 3 hours and subsequently at 37° C. for 2.5 hours. Subsequently, the cells were subjected to centrifugation (380 g, 5 minutes) as they were on the plate, resuspended in 100 μL of a C7709A2 monoclonal antibody-producing hybridoma culture supernatant, and incubated on ice for 45 to 60 minutes. The cells were washed with ice-cooled PBS and then incubated together with an FITC-conjugated goat anti-mouse IgG antibody (KPL, Gaithersburg, MD) on ice for 30 minutes. The cells were washed with ice-cooled PBS as they were on the plate, then resuspended in 1% formaldehyde and PBS, and analyzed by a FACScan (BD Biosciences, Mountain View, CA), and the mean fluorescence intensity (MFI) shift (fluorescence increase as a result of stabilization by binding peptide) due to an increase in the amount of stable HLA-A24 molecules was thus measured. A cell treated with nonbinding peptide GK12 (concentration 0 to 10 μM) has a constant MFI and it was used as a negative control.
# The MFI shift (AMFI) for a peptide concentration of 1 μM was measured for 26 types of randomly selected peptides of the natural peptides obtained in Example 1 above. A score was also calculated for these peptides using NetMHC3.4, and correlation with ΔMFI was investigated.
# human PBMC = assay: CTL induction from PBMC by peptide stimulation; assay type: cell-based; conditions: peptide 10 μg/mL, PBMC of HLA-A24-positive healthy controls, method of Example 5 (1)
# Protocol: Peripheral blood was collected using a heparin-containing 50 ML syringe from HLA-A24-positive healthy controls who had given informed consent. The whole blood was layered in a 50 mL tube (Falcon) to which 13 mL of Lymphoprep (Nycomed) had been added, and subjected to centrifugation at 2000 rpm for 30 minutes. A PBMC layer precipitated on the Lymphoprep layer was recovered using a pipette and washed three times with PBS, thus giving human PBMC.
# About 3×10^7 cells/plate of the human PBMC separated above and 10 mL of Hepes-modified RPMI1640 medium (Sigma) containing 2-mercaptoethanol (final concentration 55 μM), L-glutamine (final concentration 2 mM), as antibiotics streptomycin (final concentration 100 μg/mL) and penicillin G (final concentration 100 U/mL), and 5% serum component were placed in each well of a […] for cell culture (BECTON DIKINSON), and suspension cultured. PVT1-derived natural antigen peptide of SEQ ID No: 1 (hereinafter referred to as ‘HF10’) or SUV39H2-derived natural antigen peptide of SEQ ID No: 2 (hereinafter referred to as ‘RF8’) were added thereto at a concentration of 10 μg/mL. After culturing was carried out for 2 days, IL-2 was added at a final concentration of 50 U/mL, and culturing was carried out for a further 2 weeks. […]
substance,measurement,setting,value
GK12: synthetic nonbinding peptide used as negative control for HLA-A24 binding (GYISPYFINTSK) [reference compound],MFI of T2-A24 cells treated with peptide,"HLA-A24; concentration 0 to 10 μM, negative control peptide",constant MFI
"HWNDTRPAHF [SEQ ID No: 1, PVT1-derived natural antigen peptide]",binding to HLA-A24,HLA-A24,high binding
same,CTL induction,human PBMC,A plurality of CTL clones were induced
"IFQGNVHNF [SEQ ID No: 4, SNRNP40-derived natural peptide]",binding to HLA-A24,HLA-A24,high binding
"KYVKDFHKF [SEQ ID No: 3, ZNF724P-derived natural peptide]",binding to HLA-A24,HLA-A24,high binding
"RYGNVSHF [SEQ ID No: 2, SUV39H2-derived natural antigen peptide]",binding to HLA-A24,HLA-A24,high binding
same,CTL induction,human PBMC,A plurality of CTL clones were induced
"VYTYIQSRF [SEQ ID No: 5, DYRK4-derived natural peptide]",binding to HLA-A24,HLA-A24,high binding
